Read-outs that look alike come from different tables or passages of the source.
Legend:
TNFα = assay: Cot Monocyte TNFα Cell Based Assay; details: Homo sapiens, Monocyte
Human Cot = Human Cot (Homo sapiens (Human), UniProt P41279); assay: High Throughput Cot Biochemical Assay; details: IC50 HTRF
[1] = read-out: EC50 TNF, LPS-stimulated human monocytes, TNFα
[2] = Cot HTRF (TR-FRET) biochemical assay
[3] = read-out: EC50 TNF, LPS-stimulated human monocytes, TNFα TR-FRET
[4] = Cot HTRF (TR-FRET KinEASE) biochemical assay, 400 μM ATP

Chain of Human Cot (P41279 30-397): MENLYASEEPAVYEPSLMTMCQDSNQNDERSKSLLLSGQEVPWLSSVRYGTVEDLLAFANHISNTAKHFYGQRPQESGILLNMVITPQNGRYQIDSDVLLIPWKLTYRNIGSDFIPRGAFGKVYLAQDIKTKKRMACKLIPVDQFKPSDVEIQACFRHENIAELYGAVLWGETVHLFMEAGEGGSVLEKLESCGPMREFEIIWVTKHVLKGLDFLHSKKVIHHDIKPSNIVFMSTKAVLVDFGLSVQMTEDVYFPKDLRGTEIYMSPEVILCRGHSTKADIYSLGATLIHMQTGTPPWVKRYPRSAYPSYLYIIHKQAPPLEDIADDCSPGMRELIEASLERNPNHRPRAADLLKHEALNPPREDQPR

Row | Structure (SMILES) | EC50 (TNFα; [1]) [nM] | IC50 (Human Cot; [2]) [nM] | EC50 (TNFα; [3]) [nM] | IC50 (Human Cot; [4]) [nM]
1 | Cc1nc(F)ccc1[C@H](Nc1cc(Cl)c2ncc(C#N)c(N[C@H]3CCOCC3(C)C)c2c1)c1cn(C2(C(F)F)CC2)nn1 [Example 540, 8-chloro-6-(((S)-(1-(1-(difluoromethyl)-cyclopropyl)-1H-1,2,3-triazol-4-yl)(6-fluoro-2-methylpyridin-3-yl)methyl)-amino)-4-(((S)-3,3-dimethyltetrahydro-2H-pyran-4-yl)amino)quinoline-3-carbonitrile] | 760 | 50 | – | –
2 | CCc1nc(F)ccc1[C@H](Nc1cc(Cl)c2ncc(C#N)c(NCC(C)(C)C)c2c1)c1cn(C2(C(F)F)CC2)nn1 [Example 592, (S)-8-chloro-6-(((1-(1-(difluoromethyl)cyclo-propyl)-1H-1,2,3-triazol-4-yl)(2-ethyl-6-fluoropyridin-3-yl)methyl)amino)-4-(neopentylamino)quinoline-3-carbonitrile] | 78 | 5 | – | –
3 | Cc1ncsc1[C@H](Nc1cc(Cl)c2ncc(C#N)c(Nc3cccc(Cl)c3F)c2c1)c1cn(C2CCN(C(C)(C)C)CC2)nn1 [Example 253, (R)-6-(((1-(1-(tert-butyl)piperidin-4-yl)-1H-1,2,3-triazol-4-yl)(4-methylthiazol-5-yl)methyl)amino)-8-chloro-4-((3-chloro-2-fluorophenyl)amino)quinoline-3-carbonitrile] | 66 | 4 | – | –
4 | Cc1nc(F)ccc1[C@H](Nc1cc(C#N)c2ncc(C#N)c(NCC(C)(C)C(F)(F)F)c2c1)c1cn(C(C)(C)C)nn1 [Example 827, (S)-6-(((1-(tert-butyl)-1H-1,2,3-triazol-4-yl)(6-fluoro-2-methylpyridin-3-yl)methyl)amino)-4-((3,3,3-trifluoro-2,2-dimethylpropyl)amino)quinoline-3,8-dicarbonitrile] | – | – | 38 | 2
5 | Cc1nc(F)ccc1[C@H](Nc1cc(Cl)c2ncc(C#N)c(NCC(C)(C)C)c2c1)c1cn(C2(C(F)(F)F)COC2)nn1 [Example 548, (S)-8-chloro-6-(((6-fluoro-2-methylpyridin-3-yl)(1-(3-(trifluoromethyl)oxetan-3-yl)-1H-1,2,3-triazol-4-yl)methyl)amino)-4-(neopentylamino)quinoline-3-carbonitrile] | 124 | 8 | – | –
6 | Cn1cc2c([C@H](Nc3cc(Cl)c4ncc(C#N)c(NCC(C)(C)C)c4c3)c3cn(C4CC4)nn3)cccc2n1 [Example 426, (S)-8-chloro-6-(((1-cyclopropyl-1H-1,2,3-triazol-4-yl)(2-methyl-2H-indazol-4-yl)methyl)amino)-4-(neopentylamino)-quinoline-3-carbonitrile] | 95 | 2 | – | –
7 | Cc1nc(F)ccc1[C@H](Nc1cc(Cl)c2ncc(C#N)c(NCC(C)(C)C(F)(F)F)c2c1)c1cn(C2(C(F)(F)F)CC2)nn1 [Example 721, (S)-8-chloro-6-(((6-fluoro-2-methylpyridin-3-yl)(1-(1-(trifluoromethyl)cyclopropyl)-1H-1,2,3-triazol-4-yl)methyl)amino)-4-((3,3,3-trifluoro-2,2-dimethylpropyl)amino)quinoline-3-carbonitrile] | 109 | 6 | – | –
8 | CC(C)(C)CNc1c(C#N)cnc2c(Br)cc(N[C@H](c3cn(C4(C(N)=O)CC4)nn3)c3cccc4ncsc34)cc12 [Example 408, (S)-1-(4-(benzo[d]thiazol-7-yl((8-bromo-3-cyano-4-(neopentylamino)-quinolin-6-yl)amino)methyl)-1H-1,2,3-triazol-1-yl)cyclopropane-1-carboxamide] | 88 | 1 | – | –
9 | Cn1cc2c([C@H](Nc3cc(Cl)c4ncc(C#N)c(NCC(C)(C)C)c4c3)c3cn(C4(C(F)F)CC4)nn3)cccc2n1 [Example 497, (S)-8-chloro-6-(((1-(1-(difluoromethyl)-cyclopropyl)-1H-1,2,3-triazol-4-yl)(2-methyl-2H-indazol-4-yl)methyl)amino)-4-(neopentylamino)quinoline-3-carbonitrile] | 379 | 6 | – | –
10 | Cn1ccc2c([C@H](Nc3cc(Cl)c4ncc(C#N)c(NCC(C)(C)C)c4c3)c3cn(C4(C(F)F)CC4)nn3)cccc21 [Example 736, (S)-8-chloro-6-(((1-(1-(difluoromethyl)cyclopropyl)-1H-1,2,3-triazol-4-yl)(1-methyl-1H-indol-4-yl)methyl)amino)-4-(neopentylamino)quinoline-3-carbonitrile] | 645 | 117 | – | –
11 | CC1(n2cc([C@@H](Nc3cc(Cl)c4ncc(C#N)c(NCC(C)(C)C(F)(F)F)c4c3)c3ccc(F)c4ncccc34)nn2)CC1 [Example 919, (S)-8-chloro-6-(((8-fluoroquinolin-5-yl)(1-(1-methylcyclopropyl)-1H-1,2,3-triazol-4-yl)methyl)amino)-4-((3,3,3-trifluoro-2,2-dimethylpropyl)amino)quinoline-3-carbonitrile] | – | – | 49 | 2
12 | CC(C)(C)CNc1c(C#N)cnc2c(Cl)cc(N[C@H](c3cn(C4(C(F)(F)F)CC4)nn3)c3cccc4nccnc34)cc12 [Example 734, (S)-8-chloro-4-(neopentylamino)-6-((quinoxalin-5-yl(1-(1-(trifluoromethyl)-cyclopropyl)-1H-1,2,3-triazol-4-yl)methyl)amino)quinoline-3-carbonitrile] | 313 | 41 | – | –
13 | N#Cc1cnc2c(Cl)cc(N[C@H](c3c[nH]nn3)c3csc4c3CCNC4)cc2c1Nc1ccc(F)c(Cl)c1 [Example 275, (S)-8-chloro-4-((3-chloro-4-fluorophenyl)amino)-6-(((4,5,6,7-tetrahydrothieno[2,3-c]pyridin-3-yl)(1H-1,2,3-triazol-4-yl)methyl)-amino)quinoline-3-carbonitrile] | 2330 | 7 | – | –
14 | Cc1nc(F)ccc1[C@H](Nc1cc(Cl)c2ncc(C#N)c(NCC(C)(C)C)c2c1)c1cn(C2CC(F)(F)C2)nn1 [Example 645, (S)-8-chloro-6-(((1-(3,3-difluorocyclobutyl)-1H-1,2,3-triazol-4-yl)(6-fluoro-2-methylpyridin-3-yl)methyl)amino)-4-(neopentylamino)quinoline-3-carbonitrile] | 66 | 11 | – | –
15 | COc1ncccc1[C@H](Nc1cc(C#N)c2ncc(C#N)c(NCC(C)(C)C)c2c1)c1cn(C2(C(F)(F)F)CC2)nn1 [Example 885, (S)-6-(((2-methoxypyridin-3-yl)(1-(1-(trifluoromethyl)cyclopropyl)-1H-1,2,3-triazol-4-yl)methyl)amino)-4-(neopentylamino)quinoline-3,8-dicarbonitrile] | – | – | 132 | 10
16 | Cc1ncccc1[C@H](Nc1cc(Cl)c2ncc(C#N)c(N[C@H](C)c3ccccc3)c2c1)c1cn(C2COC2)nn1 [Example 171, 8-chloro-6-(((S)-(2-methylpyridin-3-yl)(1-(oxetan-3-yl)-1H-1,2,3-triazol-4-yl)methyl)amino)-4-(((R)-1-phenylethyl)amino)quinoline-3-carbonitrile] | 320 | 10 | – | –
17 | Cc1ncsc1[C@H](Nc1cc(Cl)c2ncc(C#N)c(N[C@H](C)c3ccccc3)c2c1)c1c[nH]nn1 [Example 243, 8-chloro-6-(((R)-(4-methylthiazol-5-yl)(1H-1,2,3-triazol-4-yl)methyl)amino)-4-(((R)-1-phenylethyl)amino)quinoline-3-carbonitrile] | 9490 | 41 | – | –

— patent US11066414B2, “Cot modulators and methods of use thereof” (Gilead Sciences, Inc., priority 2015, dated 2021)
